We go through two molecules from patent US7098233B2 (priority 2001, dated 2006).

Data set [1] addresses T1, 5-HT1a (Homo sapiens, UniProt P08908).
T1 sequence (P08908 1-422): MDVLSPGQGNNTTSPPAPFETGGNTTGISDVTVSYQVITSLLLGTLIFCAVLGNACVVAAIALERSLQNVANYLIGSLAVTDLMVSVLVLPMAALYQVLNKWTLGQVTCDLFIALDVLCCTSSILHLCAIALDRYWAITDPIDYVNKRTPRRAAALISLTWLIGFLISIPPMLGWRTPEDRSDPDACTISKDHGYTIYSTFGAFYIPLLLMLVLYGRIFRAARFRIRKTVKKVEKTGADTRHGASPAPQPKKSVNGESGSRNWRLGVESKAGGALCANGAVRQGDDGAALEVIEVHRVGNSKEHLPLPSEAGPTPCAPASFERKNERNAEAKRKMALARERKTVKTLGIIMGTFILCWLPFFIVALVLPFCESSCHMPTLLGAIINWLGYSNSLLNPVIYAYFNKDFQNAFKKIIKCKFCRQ
Briefly: Binding affinity for serotonin subtype 5-HT1a.

In data set [2] the target is T2, D4,4 dopaminergic (Homo sapiens, UniProt P21917).
T2 sequence (P21917 1-419): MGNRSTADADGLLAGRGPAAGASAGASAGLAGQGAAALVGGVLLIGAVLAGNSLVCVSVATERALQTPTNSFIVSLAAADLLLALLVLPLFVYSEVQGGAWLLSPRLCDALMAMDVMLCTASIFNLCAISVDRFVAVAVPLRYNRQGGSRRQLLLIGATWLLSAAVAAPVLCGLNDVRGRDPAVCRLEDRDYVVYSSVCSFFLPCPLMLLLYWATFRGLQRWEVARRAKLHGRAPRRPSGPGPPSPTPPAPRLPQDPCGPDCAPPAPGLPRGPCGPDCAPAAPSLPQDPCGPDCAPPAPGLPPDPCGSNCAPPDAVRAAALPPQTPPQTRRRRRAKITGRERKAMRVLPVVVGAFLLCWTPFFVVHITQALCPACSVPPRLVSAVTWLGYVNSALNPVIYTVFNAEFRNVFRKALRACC
The experiment in a line: Receptor panel binding: D4,4 dopaminergic.

In data set [3] the target is 5-HT2a (Homo sapiens, UniProt P28223). Briefly: biochemical. The data set is classed as binding.
5-HT2a, sequence (P28223 whole entry): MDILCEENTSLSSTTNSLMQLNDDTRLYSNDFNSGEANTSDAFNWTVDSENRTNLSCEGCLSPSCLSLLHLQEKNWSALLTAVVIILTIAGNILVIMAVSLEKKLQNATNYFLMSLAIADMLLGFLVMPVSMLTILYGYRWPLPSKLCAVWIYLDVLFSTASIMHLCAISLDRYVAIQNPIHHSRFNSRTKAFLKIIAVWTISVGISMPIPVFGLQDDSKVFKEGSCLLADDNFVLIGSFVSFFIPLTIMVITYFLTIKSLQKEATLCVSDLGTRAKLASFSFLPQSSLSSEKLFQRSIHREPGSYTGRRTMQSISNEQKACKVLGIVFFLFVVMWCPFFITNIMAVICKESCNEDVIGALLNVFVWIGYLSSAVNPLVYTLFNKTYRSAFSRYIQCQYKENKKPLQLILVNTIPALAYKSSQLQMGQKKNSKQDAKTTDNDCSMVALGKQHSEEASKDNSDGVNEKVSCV

With `Cc1[nH]c2ccc(Cl)cc2c1CCN(C)C` [ST 1936, 5-chloro-2-methyl-N,N-dimethyltryptamine], the melting point – broadly, the temperature of the solid-liquid transition – lay within 126 to 127 °C. In data set [1], the Ki (in general, a dissociation constant, usually derived from enzyme kinetics or from competition with a known ligand) was > 1000 nM. Moreover, in data set [2], the Ki was ≥ 1000 nM.

As for `CCc1[nH]c2ccc(Cl)cc2c1CCN(C)C` [ST 2253, 5-Chloro-2-ethyl-N,N-dimethyltryptamine], the melting point is 188 °C (dec.). Moreover, the Ki in data set [1] is ≥ 1000 nM. Moreover, the Ki in data set [3] is > 1000 nM. Also, in data set [2], the Ki was ≥ 1000 nM.
